Values after ≈ are worked out from the molar mass of the structure shown. Active and inactive are the calls of the source. The calls are words filed in the database; no cut-off is given here.

Assay [1] can be described thus: Cytotoxicity against human PLC/PRF/5 cells. The assay is classed as functional. The conditions noted are these: read-out: ED50 (the source's name).
The next assay concerns KB. The assay can be described thus: Cytotoxicity against human KB cells. The format is functional. Conditions: read-out: ED50 (the source's name).
Another assay has as its system Mus musculus. The assay can be described thus: Protective activity against CCL4-induced hepatotoxicity in ICR mouse assessed as SGOT/SGPT levels at 0.1 to 3 mg/kg, ip.

Regarding `O=C1C[C@@H](c2ccc(O)cc2)Oc2cc(O)cc(O)c21` [NARINGENIN], the EC50 was 2.47 µg/mL (≈ 9.07 µM) in assay [1] and 2.71 µg/mL (≈ 9.95 µM) in the assay with KB.

With `C[C@@H]1CC[C@@]2(NC1)O[C@H]1C[C@H]3[C@@H]4CC=C5C[C@@H](O[C@@H]6O[C@H](CO)[C@H](O)[C@H](O[C@@H]7O[C@H](CO)[C@@H](O)[C@H](O)[C@H]7O)[C@H]6O[C@@H]6O[C@@H](C)[C@H](O)[C@@H](O)[C@H]6O)CC[C@]5(C)[C@H]4CC[C@]3(C)[C@H]1[C@@H]2C` [SOLASONINE], the EC50 in assay [1] was 7.88 µg/mL (≈ 8.91 µM); in the assay with KB it was 11.4 µg/mL (≈ 12.9 µM).

For the molecule `C[C@@H]1CC[C@@]2(NC1)O[C@H]1C[C@H]3[C@@H]4CC=C5C[C@@H](O[C@@H]6O[C@H](CO)[C@@H](O[C@@H]7O[C@@H](C)[C@H](O)[C@@H](O)[C@H]7O)[C@H](O)[C@H]6O)CC[C@]5(C)[C@H]4CC[C@]3(C)[C@H]1[C@@H]2C`, in the assay with Mus musculus, the result was Active.

Turning to `C[C@@H]1CC[C@]2(O[C@H]3C[C@H]4[C@@H]5CC=C6C[C@@H](O)CC[C@]6(C)[C@H]5CC[C@]4(C)[C@H]3[C@@H]2C)N(C)C1`, the EC50 was 8.02 µg/mL (≈ 18.8 µM) in assay [1] and 6 µg/mL (≈ 14 µM) with KB.

Take `C[C@H]1CC[C@H]([C@@H](C)[C@H]2[C@H](O)C[C@H]3[C@@H]4CC=C5C[C@@H](O)CC[C@]5(C)[C@H]4CC[C@]23C)NC1` [CAPSIMINE]: the EC50 in assay [1] is 1.97 µg/mL (≈ 4.74 µM); in the assay on KB it was 1.35 µg/mL (≈ 3.25 µM). The result in the assay with Mus musculus was Active.

On to `C[C@@H]1CC[C@H]([C@@H](C)C2[C@H](O)C[C@H]3[C@@H]4CC=C5C[C@@H](O[C@@H]6O[C@H](CO)[C@@H](O)[C@H](O)[C@H]6O)CC[C@]5(C)[C@H]4CC[C@]23C)NC1` (some centres undefined), for which the outcome with Mus musculus was Active.

For the molecule `C[C@H]1CC[C@H]([C@@H](C)[C@H]2[C@H](O)C[C@H]3[C@@H]4CC=C5C[C@@H](O[C@@H]6O[C@H](CO)[C@@H](O)[C@H](O)[C@H]6O)CC[C@]5(C)[C@H]4CC[C@]23C)NC1` [CAPSICASTRINE], in assay [1], the EC50 worked out at 1.78 µg/mL (≈ 3.08 µM).

For the molecule `C[C@H]1CC=C([C@@H](C)[C@H]2[C@H](O)C[C@H]3[C@@H]4CC=C5C[C@@H](O)CC[C@]5(C)[C@H]4CC[C@]23C)NC1` [ETIOLINE], the figures for the EC50 (in assay [1]; with KB) were 2.67 µg/mL (≈ 6.45 µM) and 11.2 µg/mL (≈ 27.1 µM), respectively.

The record behind these values is ChEMBL document CHEMBL1147329, “Cytotoxic principles and their derivatives of Formosan Solanum plants” (1993).
